Assays:
wheat (Triticum spp.) = assay: Test Example 1: foliar treatment, growth inhibition rate, wheat; type: in vivo; details: visually observed 17th to 23rd day after application; for pest or weed control at 31 g/ha: Triticum
Description: (§1) Upland field soil was put into a 1/170,000 hectare pot, and seeds of various plants were sown. When the respective plants reached predetermined leaf stage ((1) barnyardgrass (Echinochloa crus-galli L.); 0.8 to 2.5 leaf stage, (2) crabgrass (Digitaria sanguinalis L.): 0.5 to 3.0 leaf stage, (3) greenfoxtail (Setaria viridis L.): 1.0 to 3.0 leaf stage, (4) redroot pigweed (Amaranthus retroflexus L.): cotyledon stage to 2.0 leaf stage, (5) prickly sida (Sida spinosa L.): cotyledon stage to 1.1 leaf stage, (6) velvetleaf (Abutilon theophrasti MEDIC.): cotyledon stage to 1.5 leaf stage, (7) rice (Oryza sativa L.): 1.0 to 2.5 leaf stage, (8) wheat (Triticum spp.): 1.7 to 3.4 leaf stage, (9) corn (Zea mays L.): 2.0 to 3.5 leaf stage, and (10) soybean (Glycine max Merr.): primary leaf stage to 0.3 leaf stage), wettable powders or emulsifiable concentrates of the compounds of the present invention prepared in accordance with a conventional preparation method, were weighed so that the active ingredients became the prescribed amounts, and diluted with water in an amount corresponding to 500 liter per 1 hectare. 0.1 vol % of an agricultural spreader was further added to the respective diluted liquids, followed by foliar treatment with a small sprayer.
(§2) On the 17th to 23rd day after application, the state of growth of the respective plants was visually observed, and the herbicidal effect was evaluated in accordance with a growth inhibition rate (%) of 0 (equivalent to the non-treated area) to 100% (complete kill).

wheat = assay: Test Example 2: soil application on the day after sowing, growth inhibition rate, wheat; type: in vivo, Triticum spp.; details: 250 g/ha active ingredient, observed on 19th to 24th day; for inhibition at 250 g/ha: Triticum aestivum
Description: (§3) Upland field soil was put into a 1/170,000 hectare pot, and seeds of various plants (barnyardgrass, crabgrass, greenfoxtail, redroot pigweed, prickly sida, velvetleaf, rice, wheat, corn and soybean) were sown. On the day after sowing, wettable powders or emulsifiable concentrates of the compounds of the present invention prepared in accordance with a conventional preparation method, were weighed so that the active ingredients became the prescribed amounts, and diluted with water in an amount corresponding to 500 liter per 1 hectare, followed by soil application with a small sprayer. On the 19th to 24th day after the application, the state of growth of the respective plants was visually observed, and the herbicidal effect was evaluated in accordance with a growth inhibition rate (%) of from 0 (equivalent to the non-treated area) to 100% (complete kill).

corn = assay: Test Example 2: soil application on the day after sowing, growth inhibition rate, corn; type: in vivo, Zea mays L.; details: 250 g/ha active ingredient, observed on 19th to 24th day; for inhibition at 250 g/ha: Zea mays
Description: as §3

rice = assay: Test Example 2: soil application on the day after sowing, growth inhibition rate, rice; type: in vivo, Oryza sativa L.; details: 250 g/ha active ingredient, observed on 19th to 24th day; for inhibition at 250 g/ha: Oryza sativa
Description: as §3

[1] = test system: crabgrass (Digitaria sanguinalis L.); assay: Test Example 1: foliar treatment, growth inhibition rate, crabgrass; type: in vivo; details: visually observed 17th to 23rd day after application; for pest or weed control at 31 g/ha: Digitaria sanguinalis
Description: as §1, §2

[2] = test system: barnyardgrass (Echinochloa crus-galli L.); assay: Test Example 1: foliar treatment, growth inhibition rate, barnyardgrass; type: in vivo; details: visually observed 17th to 23rd day after application; for pest or weed control at 31 g/ha: Echinochloa crus-galli
Description: as §1, §2

greenfoxtail = assay: Test Example 2: soil application on the day after sowing, growth inhibition rate, greenfoxtail; type: in vivo, Setaria viridis L.; details: 250 g/ha active ingredient, observed on 19th to 24th day; for inhibition at 250 g/ha: Setaria viridis
Description: as §3

prickly sida = assay: Test Example 2: soil application on the day after sowing, growth inhibition rate, prickly sida; type: in vivo, Sida spinosa L.; details: 250 g/ha active ingredient, observed on 19th to 24th day; for inhibition at 250 g/ha: Sida spinosa
Description: as §3

barnyardgrass = assay: Test Example 2: soil application on the day after sowing, growth inhibition rate, barnyardgrass; type: in vivo, Echinochloa crus-galli L.; details: 250 g/ha active ingredient, observed on 19th to 24th day; for inhibition at 250 g/ha: Echinochloa crus-galli
Description: as §3

crabgrass = assay: Test Example 2: soil application on the day after sowing, growth inhibition rate, crabgrass; type: in vivo, Digitaria sanguinalis L.; details: 250 g/ha active ingredient, observed on 19th to 24th day; for inhibition at 250 g/ha: Digitaria sanguinalis
Description: as §3

[3] = test system: redroot pigweed (Amaranthus retroflexus L.); assay: Test Example 1: foliar treatment, growth inhibition rate, redroot pigweed; type: in vivo; details: visually observed 17th to 23rd day after application
Description: as §1, §2

[4] = test system: greenfoxtail (Setaria viridis L.); assay: Test Example 1: foliar treatment, growth inhibition rate, greenfoxtail; type: in vivo; details: visually observed 17th to 23rd day after application; for pest or weed control at 31 g/ha: Setaria viridis
Description: as §1, §2

[5] = test system: prickly sida (Sida spinosa L.); assay: Test Example 1: foliar treatment, growth inhibition rate, prickly sida; type: in vivo; details: visually observed 17th to 23rd day after application
Description: as §1, §2

velvetleaf = assay: Test Example 2: soil application on the day after sowing, growth inhibition rate, velvetleaf; type: in vivo, Abutilon theophrasti MEDIC.; details: 250 g/ha active ingredient, observed on 19th to 24th day; for inhibition at 250 g/ha: Abutilon theophrasti
Description: as §3

[6] = test system: velvetleaf (Abutilon theophrasti MEDIC.); assay: Test Example 1: foliar treatment, growth inhibition rate, velvetleaf; type: in vivo; details: visually observed 17th to 23rd day after application; for pest or weed control at 31 g/ha: Abutilon theophrasti
Description: as §1, §2

rice (Oryza sativa L.) = assay: Test Example 1: foliar treatment, growth inhibition rate, rice; type: in vivo; details: visually observed 17th to 23rd day after application; for pest or weed control at 31 g/ha: Oryza sativa
Description: as §1, §2

corn (Zea mays L.) = assay: Test Example 1: foliar treatment, growth inhibition rate, corn; type: in vivo; details: visually observed 17th to 23rd day after application; for pest or weed control at 31 g/ha: Zea mays
Description: as §1, §2

redroot pigweed = assay: Test Example 2: soil application on the day after sowing, growth inhibition rate, redroot pigweed; type: in vivo, Amaranthus retroflexus L.; details: 250 g/ha active ingredient, observed on 19th to 24th day; for inhibition at 250 g/ha: Amaranthus retroflexus
Description: as §3

[7] = test system: soybean (Glycine max Merr.); assay: Test Example 1: foliar treatment, growth inhibition rate, soybean; type: in vivo; details: visually observed 17th to 23rd day after application
Description: as §1, §2

soybean = assay: Test Example 2: soil application on the day after sowing, growth inhibition rate, soybean; type: in vivo, Glycine max Merr.; details: 250 g/ha active ingredient, observed on 19th to 24th day
Description: as §3

Structure (SMILES) | Growth inhibition rate (%) Wheat (wheat (Triticum spp.); 31 g/ha active ingredient) [%] | Growth inhibition rate (%) Corn (corn) [%] | Growth inhibition rate (%) Rice (rice) [%] | Growth inhibition rate (%) Crabgrass ([1]; 31 g/ha active ingredient) [%] | Growth inhibition rate (%) Barnyardgrass ([2]; 31 g/ha active ingredient) [%] | Growth inhibition rate (%) Greenfoxtail (greenfoxtail) [%] | Growth inhibition rate (%) Prickly sida (prickly sida) [%] | Growth inhibition rate (%) Barnyardgrass (barnyardgrass) [%] | Growth inhibition rate (%) Crabgrass (crabgrass) [%] | Growth inhibition rate (%) redroot pigweed ([3]; 31 g/ha active ingredient) [%] | Growth inhibition rate (%) Greenfoxtail ([4]; 31 g/ha active ingredient) [%] | Growth inhibition rate (%) Prickly sida ([5]; 31 g/ha active ingredient) [%] | Growth inhibition rate (%) Velvetleaf (velvetleaf) [%] | Growth inhibition rate (%) Velvetleaf ([6]; 31 g/ha active ingredient) [%] | Growth inhibition rate (%) Rice (rice (Oryza sativa L.); 31 g/ha active ingredient) [%] | Growth inhibition rate (%) Corn (corn (Zea mays L.); 31 g/ha active ingredient) [%] | Growth inhibition rate (%) redroot pigweed (redroot pigweed) [%] | Growth inhibition rate (%) Soybean ([7]; 31 g/ha active ingredient) [%] | Growth inhibition rate (%) Soybean (soybean) [%] | other results
CCSC(=O)Oc1c(C(=O)c2ccc(S(C)(=O)=O)c(COCC(F)(F)F)c2C)cnn1C [compound 69] | 0 | 0 | 70 | 98 | 95 | 50 | 70 | 70 | 95 | 85 | 95 | 70 | 70 | 95 | 80 | 50 | 100 | 98 |  | Growth inhibition rate (%) Wheat (wheat): 0%
CCSC(=O)Oc1c(C(=O)c2ccc(S(C)(=O)=O)c(C(=O)OC)c2C)cnn1CC [Compound No. 2, 1-ethyl-5-(ethylthio)carbonyloxypyrazol-4-yl 3-(methoxycarbonyl)-2-methyl-4-(methylsulfonyl)phenyl ketone] |  |  |  |  |  |  |  |  |  | 95 |  | 95 |  |  |  |  |  |  |  | pest or weed control at 31 g/ha (wheat (Triticum spp.); 31 g/ha active ingredient): 30%; inhibition at 250 g/ha (wheat): 40%; inhibition at 250 g/ha (corn): 0%; inhibition at 250 g/ha (rice): 100%; pest or weed control at 31 g/ha ([1]; 31 g/ha active ingredient): 90%; pest or weed control at 31 g/ha ([2]; 31 g/ha active ingredient): 95%; inhibition at 250 g/ha (greenfoxtail): 98%; inhibition at 250 g/ha (prickly sida): 95%; inhibition at 250 g/ha (barnyardgrass): 100%; inhibition at 250 g/ha (crabgrass): 100%; pest or weed control at 31 g/ha ([4]; 31 g/ha active ingredient): 100%; inhibition at 250 g/ha (velvetleaf): 60%; pest or weed control at 31 g/ha ([6]; 31 g/ha active ingredient): 95%; pest or weed control at 31 g/ha (rice (Oryza sativa L.); 31 g/ha active ingredient): 95%; pest or weed control at 31 g/ha (corn (Zea mays L.); 31 g/ha active ingredient): 10%; inhibition at 250 g/ha (redroot pigweed): 100%
CCSC(=O)Oc1c(C(=O)c2ccc(S(C)(=O)=O)c(OCC3CCCCO3)c2C)cnn1C (centres unmarked) [compound 215] | 0 | 0 | 90 | 60 | 100 | 70 | 40 | 90 | 95 | 95 | 70 | 50 | 0 | 50 | 70 | 30 | 60 | 95 |  | Growth inhibition rate (%) Wheat (wheat): 0%
CCSC(=O)Oc1c(C(=O)c2ccc(S(C)(=O)=O)c(OC(C)COC)c2C)cnn1C (centres unmarked) [compound 236] | 0 | 0 | 70 | 50 | 60 | 10 | 30 | 98 | 95 | 90 | 40 | 40 | 0 | 70 | 80 | 0 | 100 | 95 | 0 | 
CCCSC(=O)Oc1c(C(=O)c2ccc(S(C)(=O)=O)c(OCCOC)c2C)cnn1CC [compound 235] | 40 | 0 | 100 | 100 | 100 | 100 | 98 | 100 | 100 | 100 | 100 | 50 | 20 | 100 | 90 | 30 | 100 | 100 | 0 | 
CCSC(=O)Oc1c(C(=O)c2ccc(S(C)(=O)=O)c(OCCOC)c2C)cnn1CC [Compound No. 16, 5-(ethylthio)carbonyloxy-1-ethylpyrazol-4-yl 3-(2-methoxyethoxy)-2-methyl-4-(methylsulfonyl)phenyl ketone] |  |  |  |  |  |  |  |  |  |  |  | 40 |  |  |  |  |  | 95 |  | pest or weed control at 31 g/ha (wheat (Triticum spp.); 31 g/ha active ingredient): 0%; inhibition at 250 g/ha (wheat): 0%; inhibition at 250 g/ha (corn): 0%; inhibition at 250 g/ha (rice): 98%; pest or weed control at 31 g/ha ([1]; 31 g/ha active ingredient): 100%; pest or weed control at 31 g/ha ([2]; 31 g/ha active ingredient): 100%; inhibition at 250 g/ha (greenfoxtail): 98%; inhibition at 250 g/ha (prickly sida): 10%; inhibition at 250 g/ha (barnyardgrass): 100%; inhibition at 250 g/ha (crabgrass): 100%; pest or weed control at 31 g/ha ([4]; 31 g/ha active ingredient): 100%; inhibition at 250 g/ha (velvetleaf): 0%; pest or weed control at 31 g/ha ([6]; 31 g/ha active ingredient): 100%; pest or weed control at 31 g/ha (rice (Oryza sativa L.); 31 g/ha active ingredient): 90%; pest or weed control at 31 g/ha (corn (Zea mays L.); 31 g/ha active ingredient): 0%; inhibition at 250 g/ha (redroot pigweed): 100%
CCSC(=O)Oc1c(C(=O)c2ccc(S(C)(=O)=O)c(S(C)(=O)=O)c2Cl)cnn1C [compound 224] |  | 10 | 98 |  |  | 98 | 75 | 100 | 100 |  |  |  | 70 |  |  |  | 100 |  | 50 | Growth inhibition rate (%) Wheat (wheat (Triticum spp.); 63 g/ha active ingredient): 0%; Growth inhibition rate (%) Crabgrass ([1]; 63 g/ha active ingredient): 60%; Growth inhibition rate (%) Barnyardgrass ([2]; 63 g/ha active ingredient): 95%; Growth inhibition rate (%) redroot pigweed ([3]; 63 g/ha active ingredient): 95%; Growth inhibition rate (%) Greenfoxtail ([4]; 63 g/ha active ingredient): 70%; Growth inhibition rate (%) Prickly sida ([5]; 63 g/ha active ingredient): 70%; Growth inhibition rate (%) Velvetleaf ([6]; 63 g/ha active ingredient): 60%; Growth inhibition rate (%) Rice (rice (Oryza sativa L.); 63 g/ha active ingredient): 20%; Growth inhibition rate (%) Corn (corn (Zea mays L.); 63 g/ha active ingredient): 0%; Growth inhibition rate (%) Soybean ([7]; 63 g/ha active ingredient): 100%
